Among the data in patent US20110118262A1, “Pyrrolidinyl and Piperidinyl Compounds Useful as NHE-1 Inhibitiors” (BOEHRINGER INGELHEIM INTERNATIONAL GMBH, priority 2008, published 2011) are IC50 values, retold here.

This assay concerns the target T1, NHE-1 (Homo sapiens, UniProt P19634).
T1 construct: endogenous in cells; host or cells: HT-29
The assay is described as follows: Evaluation of NHE-1 Inhibition (pHi) in HT-29 cells. Particulars: BCECF dye, 50% inhibition of the intracellular pH recovery, read-out: NHE1 HT29 pHi IC50. The class given is cell-based. In outline:
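Intracellular pH measured with BCECF in HT-29 cells after 24 h culture. Cells dye-loaded 30 min at 37° C, then acid-loaded with NH4Cl-containing choline buffer (pH 7.5) for 30 min at RT. Compounds added on an FDSS6000 fluorescence reader.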

T1 sequence (P19634 whole entry): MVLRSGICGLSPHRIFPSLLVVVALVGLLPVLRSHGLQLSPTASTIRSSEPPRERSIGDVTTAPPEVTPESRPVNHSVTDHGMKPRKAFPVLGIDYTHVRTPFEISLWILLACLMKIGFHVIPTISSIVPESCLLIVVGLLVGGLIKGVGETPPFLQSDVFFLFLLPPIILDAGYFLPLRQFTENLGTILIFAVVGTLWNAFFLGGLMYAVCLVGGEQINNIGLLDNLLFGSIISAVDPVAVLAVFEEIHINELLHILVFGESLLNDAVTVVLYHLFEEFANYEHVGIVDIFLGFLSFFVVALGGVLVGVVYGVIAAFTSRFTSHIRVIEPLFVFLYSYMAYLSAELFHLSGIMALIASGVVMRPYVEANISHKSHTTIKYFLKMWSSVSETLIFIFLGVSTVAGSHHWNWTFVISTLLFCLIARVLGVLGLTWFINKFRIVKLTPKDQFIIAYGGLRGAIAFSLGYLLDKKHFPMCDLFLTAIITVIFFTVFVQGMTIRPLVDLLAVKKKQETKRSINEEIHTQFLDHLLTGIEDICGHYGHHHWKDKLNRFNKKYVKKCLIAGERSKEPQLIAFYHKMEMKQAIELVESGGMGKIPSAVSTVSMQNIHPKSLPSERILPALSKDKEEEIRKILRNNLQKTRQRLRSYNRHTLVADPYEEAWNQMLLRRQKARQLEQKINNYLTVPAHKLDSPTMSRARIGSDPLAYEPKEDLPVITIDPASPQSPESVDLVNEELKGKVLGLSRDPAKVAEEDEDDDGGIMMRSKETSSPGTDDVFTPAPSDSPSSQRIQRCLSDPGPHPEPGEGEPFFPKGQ

Turning to `Cn1cccc1C(=O)N1CCC(c2ccc(C(=O)NC(=N)N)cc2C(F)(F)F)CC1` [N-{4-[1-(1-Methyl-1H-pyrrole-2-carbonyl)-piperidin-4-yl]-3-trifluoromethyl-benzoyl}-guanidine], the IC50 (as a rule, the concentration at which inhibition is half-maximal) stood at 79 nM.
Under `N#Cc1ccccc1C(=O)N1CC=C(c2ccc(C(=O)NC(=N)N)cc2C(F)(F)F)CC1` [N-{4-[1-(2-Cyano-benzoyl)-1,2,3,6-tetrahydro-pyridin-4-yl]-3-trifluoromethyl-benzoyl}-guanidine] stands 93 nM.
With `CS(=O)(=O)c1ccc(C(=O)N2CC=C(c3ccc(C(=O)NC(=N)N)cc3C(F)(F)F)CC2)cc1` [N-{4-[1-(4-Methanesulfonyl-benzoyl)-1,2,3,6-tetrahydro-pyridin-4-yl]-3-trifluoromethyl-benzoyl}-guanidine], the IC50 was 49 nM.
Under `N=C(N)NC(=O)c1ccc(C2CCN(C(=O)c3ccc[nH]3)CC2)cc1` [N-{4-[1-(1H-Pyrrole-2-carbonyl)-piperidin-4-yl]-benzoyl}-guanidine] stands 385 nM.
Under `COCCC(=O)N1CCC(c2ccc(C(=O)NC(=N)N)cc2C(F)(F)F)CC1` [N-{4-[1-(3-Methoxy-propionyl)-piperidin-4-yl]-3-trifluoromethyl-benzoyl}-guanidine] stands 20 nM.
The figure for `COc1ccc2cc(C(=O)N3CCC(c4ccc(C(=O)NC(=N)N)cc4C(F)(F)F)CC3)ccc2c1` [N-{4-[1-(6-Methoxy-naphthalene-2-carbonyl)-piperidin-4-yl]-3-trifluoromethyl-benzoyl}-guanidine] is 390 nM.
In the case of `N=C(N)NC(=O)c1ccc(C2CCN(C(=O)c3ccc(F)cc3)C2)c(C(F)(F)F)c1` (stereo not shown) [N-{4-[1-(4-Fluoro-benzoyl)-pyrrolidin-3-yl]-3-trifluoromethyl-benzoyl}-guanidine], the IC50 amounted to 40 nM.
The figure for `N=C(N)NC(=O)c1ccc(C2=CCN(C(=O)c3ccc(-n4ccnc4)cc3)CC2)c(C(F)(F)F)c1` [N-{4-[1-(4-Imidazol-1-yl-benzoyl)-1,2,3,6-tetrahydro-pyridin-4-yl]-3-trifluoromethyl-benzoyl}-guanidine] is 33 nM; for `COc1ccccc1-c1cc(C(=O)N2CCC(c3ccc(C(=O)NC(=N)N)cc3C(F)(F)F)CC2)ccn1` [N-(4-{1-[2-(2-Methoxy-phenyl)-pyridine-4-carbonyl]-piperidin-4-yl}-3-trifluoromethyl-benzoyl)-guanidine] it is 200 nM.
The figure for `N=C(N)NC(=O)c1ccc(C2CCN(C(=O)c3ccc[nH]3)CC2)c(C(F)(F)F)c1` [N-{4-[1-(1H-Pyrrole-2-carbonyl)-piperidin-4-yl]-3-trifluoromethyl-benzoyl}-guanidine] is 46 nM; for `N#Cc1ccc(C(=O)N2CCC(c3ccc(C(=O)NC(=N)N)cc3C(F)(F)F)CC2)cn1` [N-{4-[1-(6-Cyano-pyridine-3-carbonyl)-piperidin-4-yl]-3-trifluoromethyl-benzoyl}-guanidine] it is 39 nM; for `N=C(N)NC(=O)c1ccc(C2CCN(C(=O)C3CC3)CC2)c(C(F)(F)F)c1` [N-[4-(1-Cyclopropanecarbonyl-piperidin-4-yl)-3-trifluoromethyl-benzoyl]-guanidine] it is 16 nM.
The figure for `COc1cc(C2CCN(C(=O)c3ccccn3)CC2)c(C(F)(F)F)cc1C(=O)NC(=N)N` [N-{2-Methoxy-4-[1-(pyridine-2-carbonyl)-piperidin-4-yl]-5-trifluoromethyl-benzoyl}-guanidine] is 43 nM.
